Laboratory results: ChEMBL document CHEMBL1932955, “Discovery of potent small molecule inhibitors of DYRK1A by structure-based virtual screening and bioassay” (Bioorg Med Chem Lett, 2012)

Molecular target: Dual specificity tyrosine-phosphorylation-regulated kinase 1A (Homo sapiens, UniProt Q13627)
Experiment: Inhibition of GST-tagged human DYRK1A using dephosphorylated MBP as substrate after 10 mins by Kinase-Glo plus luminescent kinase assay

SMILES: O=C(O[C@@H]1Cc2c(O)cc(O)cc2O[C@@H]1c1cc(O)c(O)c(O)c1)c1cc(O)c(O)c(O)c1 [EPIGALOCATECHIN GALLATE]
- IC50: 13.4 µM
